Experimental data as given in ChEMBL document CHEMBL3886335, “Difluorolactam compounds as EP4 receptor-selective agonists for use in the treatment of EP4-mediated diseases and conditions” (2015).
pIC50, pKi: −log10 of the molar value.

Target: Prostaglandin E2 receptor EP4 subtype (Homo sapiens, UniProt P35408)
Test: The filters are dried then counted for radioactivity in a scintillation counter (Topcount, Packard) using a scintillation cocktail (Microscint 0, Packard).
Format: cell membranes

Sequence of Prostaglandin E2 receptor EP4 subtype (P35408 whole entry): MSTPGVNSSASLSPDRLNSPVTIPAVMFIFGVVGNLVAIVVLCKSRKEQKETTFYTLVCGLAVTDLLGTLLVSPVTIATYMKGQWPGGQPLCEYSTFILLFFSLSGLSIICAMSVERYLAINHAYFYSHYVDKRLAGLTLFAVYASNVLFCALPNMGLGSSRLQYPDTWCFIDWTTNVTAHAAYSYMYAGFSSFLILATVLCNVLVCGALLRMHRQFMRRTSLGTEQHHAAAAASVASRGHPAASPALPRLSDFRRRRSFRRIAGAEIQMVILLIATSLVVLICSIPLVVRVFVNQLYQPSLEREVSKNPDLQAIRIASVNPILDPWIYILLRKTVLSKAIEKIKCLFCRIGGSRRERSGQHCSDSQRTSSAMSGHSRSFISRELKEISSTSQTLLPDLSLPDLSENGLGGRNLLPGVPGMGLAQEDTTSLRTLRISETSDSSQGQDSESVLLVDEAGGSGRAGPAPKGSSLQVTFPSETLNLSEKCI

- pIC50: 8.48
- pKi: 8.92
SMILES: CCC#CC[C@H](C)[C@H](O)/C=C/[C@H]1CC(F)(F)C(=O)N1CCCc1ccc(C(=O)O)s1
